Assay [1] deals with human subjects. Put plainly: Topical lip color and contour enhancement, image analysis of lip area after lip gloss application. The assay is classed as in vivo. Conditions: mean across 1, 5, 10, 15 and 30 minutes after application, Revlon Lip Gloss base. How it is done:
A preparation of (L-arg)-(L-arg)-(L-arg)-(L-arg)-(L-arg)-(L-arg)-(L-arg)-(L-arg)-(L-arg) or [LR9] was obtained from Sigma Genosys at >70% purity. […], a 1× stock of LR9 for lip enhancement was prepared as 35 mg in 50 μl pbs, which was added to 2.0 ml of Revlon Lip Gloss base for the following groups: • LR9 • Control (base only)
After addition of LR9 to lip gloss base, samples were mixed to homogeneity and stored at room temperature overnight. After baseline image acquisition using a Minolta Dimage 7 digital camera set to 105 macro (1:1) with standard lighting and scaling conditions, human subjects underwent topical application of LR9 or control gloss. All participants were blinded with respect to treatment or control application. Additional digital micrographs were acquired at time 0, 1, 5, 10, 15, and 30 minutes after lip gloss application. The gloss was then removed and participants asked to record duration of any lip contour or color changes. Additionally, any complications (irritation, etc) were also tracked for each. Each subject was treated at different timepoints with both groups (treatment or control). Image analysis of total photographic area was performed for each group, with care taken to normalize each to scales included at the time of photograph acquisition. Baseline images (pre-application) were verified to have statistically similar values between pre-LR9 gloss and pre-base gloss applications for each participant. Mean and standard error across timepoints 1, 5, 10, 15, and 30 minutes were determined for each participant after LR9-gloss or base gloss application. Values for each as well as photos acquired at matching timepoints are presented by participant below for 3 participants. [drawing]

The test system of assay [2] is C57 black six mice. In words: Topical enhancement of hair growth after depilation, daily application for 14 days. It is filed as in vivo. Also noted: key to Hair Shaft Length, Comparison anova (95) vs. control / Follicle Area, Comparison anova (95) vs. control / Number of follicles per cross-section, Comparison anova (95) vs. control: **: significant by fisher PLSD and Scheffe F-test (P = 0.0001). The method, then: A preparation of (L-arg)-(L-arg)-(L-arg)-(L-arg)-(L-arg)-(L-arg)-(L-arg)-(L-arg)-(L-arg) or [LR9] was obtained from Sigma Genosys at >70% purity. To achieve a therapeutic benefit on hair growth, a 10× stock of LR9 was prepared as 70 mg in 80 μl PBS. To 0.2 ml of Cetaphil moisturizer base was added the following: • LR9: 20 μl of 10× LR9 stock • Control: 20 μl PBS
After addition of LR9/PBS to moisturizer base, samples were mixed to homogeneity and stored at 4C overnight. C57 black six mice at 8 weeks of age were anesthetized with 3% isoflurane by inhalation, were shaved, and underwent depilation at mid-scapular dorsal region of 2 cm×2 cm with a rosin mixture (Surgiwax, Ardell, Commerce, Calif.) to induce the synchronized adolescent first hair cycle. Moisturizer was applied daily at 0.2 cc per day for either LR9 treatment or control for a fourteen day period at n=4 per group. After 14 days application the treated skin segment was harvested en bloc and subdivided into three equal portions: a cranial portion, a left lateral portion and a right lateral portion. The cranial portion and the left lateral portion were fixed in 10% neutral buffered formalin for 12-16 hours, then rinsed in 70% ethanol and embedded in paraffin. The right lateral portion was snap frozen in OCT medium at the time of harvest and stored at −35C until use.
Paraffin-embedded specimens were sectioned at 4-6 microns, deparaffinized, and stained with a combination of Verhoeff elastica stain and the Masson trichrome stain for morphological assessment of follicle area and number. Frozen samples underwent random hair pulls to determine hair shaft length. All procedures and analyses were performed by blinded observers. […] Images were analyzed using Image Pro Plus software (Media Cybernetics, Silver Spring, Md.) to determine total cross-sectional follicle area, follicle number, or hair length. Mean and standard error were assessed using Statview (Abacus Concepts, Berkeley, Calif.), with comparisons made using ANOVA repeated measures and significance determined at 95% with post-hoc testing using Fisher PLSD or Scheffe F-test.

On to “(L-arg)-(L-arg)-(L-arg)-(L-arg)-(L-arg)-(L-arg)-(L-arg)-(L-arg)-(L-arg) [LR9]”, for which the “Mean Area” value in assay [1] (first of 3 participants) is 7.745 sq. in; in assay [1] (second of 3 participants) it was 7.411 sq. in; in assay [1] (third of 3 participants), 7.911 sq. in. Besides, the “Number of follicles per cross-section, Mean” value in assay [2] (14 days topical) came to 406.417. The “Hair Shaft Length, Mean” value in assay [2] (14 days topical, 0.2 cc per day in Cetaphil moisturizer base, n=4, 1 pixel = 2.774 microns) is reported as 1612.424 pixels. Besides, in assay [2] (14 days topical, 1 square pixel = 7.69 square microns), the “Follicle Area (by total x-sectional area), Mean” value was found to be 53546.00 square pixels. Further, the “Follicle Area, Comparison anova (95) vs. control” value in assay [2] (14 days, LR9 vs. control) is on record as “**”. Moreover, in assay [2] (14 days, LR9 vs. control), the “Hair Shaft Length, Comparison anova (95) vs. control” value is recorded as “**”. For the same substance, the “Number of follicles per cross-section, Comparison anova (95) vs. control” value in assay [2] (14 days, LR9 vs. control) is on record as “**”. Moreover, the “Hair growth as measured by hair shaft length, total follicle area, and number of hair follicles” value in assay [2] (without any additional transdermal delivery platform) is listed as “statistically significantly enhance hair growth”.

The values above are taken from patent publication US20050226821A1, “Cosmetic formulations containing l-arginine oligomers” (priority 2002, published 2005).
